Values quoted from earlier work as cited in patent publication US20090018107A1, “NOVEL COMPOSITION TO INCREASE MUSCLE STRENGTH” (ORAL DELIVERY TECHNOLOGY LTD., priority 2007, published 2009).

Experiments:
[1] = U.S. Pat. No. 5,880,117
[2] = U.S. Pat. No. 6,989,378

| SMILES | Period of decline after the peak [1] [h] | Time to peak concentration after administration [1] [min] | Solubility in oily media [2] |
| --- | --- | --- | --- |
| C[C@]12CC[C@H]3[C@@H](CCC4=C[C@@H](O)CC[C@@]43C)[C@@H]1CC[C@@H]2O [4-androstene-3β,17β-diol] | 3 to 4 | ≤ 90 | – |
| CCCCCCCCCCC(=O)O[C@H]1CC[C@H]2[C@H]3[C@H](CC[C@]12C)[C@H]1CCC(=O)C=C1C[C@H]3C [MENT undecanoate, (7α,17β)-7-methyl-17-[(1-ox-oundecyl)oxy]estr-4-en-3one] | – | – | good solubility |
